{
  "source": "PubChem BioAssay AID1259410",
  "about": "(Chemical Carcinogenesis Research Information System (CCRIS), 2018)",
  "origin": "cited, not measured here",
  "tested_on": "rodent tumor promotion studies, tumor incidence",
  "assay": "CCRIS tumor promotion studies",
  "note": "Square brackets hold non-standard residues; d marks the D form. Peptide text beside a SMILES is read from it. sY = N[C@@H](Cc1ccc(OS(=O)(=O)O)cc1)C(=O)O; pGlu = O=C1CC[C@@H](C(=O)O)N1",
  "data": [
    {"smiles": "Cc1ccc(O)c(C(C)(C)C)c1", "values": [
      {"measurement": "outcome", "setting": "Carcinogen: N-BUTYL-N-(4-HYDROXYBUTYL)NITROSAMINE, 3817-11-6, Doses [Carcinogen]: 0.5% IN DRINKING WATER FOR 4 WK, Doses [Promoter]: 0, 1% IN DIET FOR 32 WK BEGINNING 3 D POST CARCINOGEN TREATMENT (STUDY DURATION: 36 WK), Route [Carcinogen]: ORAL, Route [Promoter]: ORAL, Species: RAT, Strain/Sex: F344/MALE", "value": "bladder: carcinoma, papilloma"}
    ]},
    {"smiles": "O=[Se](O)O", "values": [
      {"measurement": "outcome", "setting": "Carcinogen: N-METHYL-N'-NITRO-N-NITROSOGUANIDINE [70-25-7], Doses [Carcinogen]: 20 MG/KG BW DAILY FOR 10 D, Doses [Promoter]: 0, 2, 4 MG/L 1 WK BEFORE MNNG (STUDY DURATION: 43 WKS), Doses [Promoter]: 0, 2, 4 MG/L 1 WK BEFORE MNNG (STUDY DURATION: 43 WKS), Route [Carcinogen]: GAVAGE?, Route [Promoter]: DRINKING WATER, Species: RAT, Strain/Sex: WISTAR/MALE", "value": "stomach: gastric cancer"},
      {"measurement": "outcome", "setting": "Doses [Carcinogen]: 20 MG/KG/D FOR 10 D, Doses [Promoter]: 2, 4 MG/L WATER ONE WK BEFORE CARCINOGEN (STUDY DURATION: 43 WK), Route [Carcinogen]: GAVAGE, Route [Promoter]: DRINKING WATER, Species: RAT, Strain/Sex: WISTAR (15/GROUP)", "value": "stomach: gastric leiomyoma"}
    ]},
    {"smiles": "O=C1c2ccccc2C(=O)c2c(O)cccc21", "values": [
      {"measurement": "outcome", "setting": "Carcinogen: METHYLAZOXYMETHANOL ACETATE, 592-62-1, Doses [Carcinogen]: 25 MG/KG BW 1/WK FOR 2 WK, Doses [Promoter]: 0, 1% IN DIET FOR 42 WK BEGINNING 1 WK POST CARCINOGEN TREATMENT (STUDY DURATION: 44 WK), Route [Carcinogen]: INTRAPERITONEAL, Route [Promoter]: ORAL, Species: RAT, Strain/Sex: ACI/FEMALE", "value": "intestine: adenoma"},
      {"measurement": "outcome", "setting": "Carcinogen: METHYLAZOXYMETHANOL ACETATE, 592-62-1, Doses [Carcinogen]: 25 MG/KG BW 1/WK FOR 2 WK, Doses [Promoter]: 0, 1% IN DIET FOR 42 WK BEGINNING 1 WK POST CARCINOGEN TREATMENT (STUDY DURATION: 44 WK), Route [Carcinogen]: INTRAPERITONEAL, Route [Promoter]: ORAL, Species: RAT, Strain/Sex: ACI/MALE", "value": "intestine: adenoma, adenocarcinoma"}
    ]},
    {"smiles": "CSCC[C@H](NC(=O)[C@H](Cc1c[nH]c2ccccc12)NC(=O)CNC(=O)[C@@H](NC(=O)[C@H](Cc1ccc(OS(=O)(=O)O)cc1)NC(=O)[C@H](CC(=O)O)NC(=O)[C@H](CCC(N)=O)NC(=O)[C@@H]1CCC(=O)N1)[C@@H](C)O)C(=O)N[C@@H](CC(=O)O)C(=O)N[C@@H](Cc1ccccc1)C(N)=O", "note": "([pGlu]QD[sY]TGWMDF-NH2)", "values": [
      {"measurement": "outcome", "setting": "Carcinogen: 7,12-DIMETHYLBENZ[A]ANTHRACENE, 57-97-6, Doses [Carcinogen]: 2-3 MG ONCE, Doses [Promoter]: 0, 5 UG/KG 2/D FOR 15 D POST CARCINOGEN TREATMENT (STUDY DURATION: 6 MO), Route [Carcinogen]: PANCREATIC IMPLANT, Route [Promoter]: SUBCUTANEOUS, Species: RAT, Strain/Sex: SPRAGUE-DAWLEY/MALE", "value": "pancreas: carcinoma"},
      {"measurement": "outcome", "setting": "Carcinogen: N-METHYL-N'-NITRO-N-NITROSOGUANIDINE, 70-25-7, Doses [Carcinogen]: 50 UG/ML IN DRINKING WATER FOR 20 WK, Doses [Promoter]: 0, 10 UG/KG IN OLIVE OIL 1/2 D FOR 20 WK BEGINNING 3 D AFTER CARCINOGEN DOSE (STUDY DURATION: 52 WK), Route [Carcinogen]: ORAL, Route [Promoter]: SUBCUTANEOUS, Species: RAT, Strain/Sex: WISTAR/MALE", "value": "glandular stomach: adenocarcinoma"},
      {"measurement": "outcome", "setting": "Carcinogen: N-METHYL-N'-NITRO-N-NITROSOGUANIDINE, 70-25-7, Doses [Carcinogen]: 50 UG/ML IN DRINKING WATER FOR 25 WK, Doses [Promoter]: 2 UG/KG IN OLIVE OIL 1/2 D FOR 27 WK ADMINISTERED POST CARCINOGEN DOSE (STUDY DURATION: 52 WK), Route [Carcinogen]: ORAL, Route [Promoter]: SUBCUTANEOUS, Species: RAT, Strain/Sex: WISTAR/MALE", "value": "stomach: adenocarcinoma"}
    ]},
    {"smiles": "CCOC(N)=O", "values": [
      {"measurement": "outcome", "setting": "Carcinogen: 7,12-DIMETHYLBENZ(A)ANTHRACENE, 57-97-6, Doses [Carcinogen]: 51.2 UG IN 100 UG ACETONE ONCE, Doses [Promoter]: 0, 10% IN ACETONE 2/WK FOR 50 WK BEGINNING 2 WK POST CARCINOGEN DOSE (STUDY DURATION: 52 WK), Route [Carcinogen]: DERMAL, Route [Promoter]: DERMAL, Species: MOUSE, Strain/Sex: HR/HR/MALE,FEMALE", "value": "skin: papilloma"}
    ]},
    {"smiles": "CCCCCCCCCCCCCC(=O)O[C@@]12C[C@@H](C)[C@@]3(O)[C@@H](C=C(CO)C[C@]4(O)C(=O)C(C)=C[C@@H]34)[C@@H]1C2(C)C", "values": [
      {"measurement": "outcome", "setting": "Carcinogen: 7,12-DIMETHYLBENZ[A]ANTHRACENE, 57-97-6, Doses [Carcinogen]: 100 NMOL ONCE, Doses [Promoter]: 0, 80 NMOL 2/WK FOR 42 WK (STUDY DURATION: 42 WK), Route [Carcinogen]: DERMAL, Route [Promoter]: DERMAL, Species: MOUSE, Strain/Sex: NMRI", "value": "skin: tumor"}
    ]}
  ]
}
